Structures are written as SMILES.

The first series in a line: The drug is tested on Bacteroides vulgatus strain: ATCC8482 for biotransformation. The drug concentrations were measured before and after a 12-h incubation by liquid-chromatography-coupled mass spectrometry (LC–MS). To be noted: phocaeicola vulgatus, 2 µM.
For the compound `CC(C)c1c(CN(C)C(C)Cc2ccccc2)n(C)n(-c2ccccc2)c1=O` (centres undefined) [FAMPROFAZONE], the “Bacterial Biotransformation” value is “Compound metabolized”.

In the case of `COc1ccc2cc([C@H](C)C(=O)O)ccc2c1` [NAPROXEN], the “Bacterial Biotransformation” value is recorded as “Compound NOT metabolized”.

A short description of another series: The drug is tested on Escherichia coli strain: BW25113 for biotransformation. The drug concentrations were measured before and after a 12-h incubation by liquid-chromatography-coupled mass spectrometry (LC–MS). To be noted: 2 µM.
For `CN1CCN2c3ccccc3Cc3ccccc3C2C1` (centres undefined) [MIANSERIN], the “Bacterial Biotransformation” value was “Compound NOT metabolized”.

On to `CN(C)CCC=C1c2ccccc2COc2ccccc21` [DOXEPIN], for which the “Bacterial Biotransformation” value is on record as “Compound NOT metabolized”.

`CC(C)c1c(CN(C)C(C)Cc2ccccc2)n(C)n(-c2ccccc2)c1=O` (centres undefined) [FAMPROFAZONE]: the “Bacterial Biotransformation” value is reported as “Compound NOT metabolized”.

Take `COc1ccc2cc([C@H](C)C(=O)O)ccc2c1` [NAPROXEN]: the “Bacterial Biotransformation” value is “Compound NOT metabolized”.

Another series in a line: The drug is tested on Clostridium sp. strain: fecal isolate for biotransformation. The drug concentrations were measured before and after a 12-h incubation by liquid-chromatography-coupled mass spectrometry (LC–MS). To be noted: 2 µM.
Consider `COc1ccc2cc([C@H](C)C(=O)O)ccc2c1` [NAPROXEN], for which the “Bacterial Biotransformation” value is given as “Compound NOT metabolized”.

The nature of another series: The drug is tested on Blautia hansenii strain: DSM20583 for biotransformation. The drug concentrations were measured before and after a 12-h incubation by liquid-chromatography-coupled mass spectrometry (LC–MS). The conditions noted are these: 2 µM.
For `CN1CCN2c3ccccc3Cc3ccccc3C2C1` (centres undefined) [MIANSERIN], the “Bacterial Biotransformation” value is “Compound NOT metabolized”.

For `CN(C)CCC=C1c2ccccc2COc2ccccc21` [DOXEPIN], the “Bacterial Biotransformation” value is reported as “Compound NOT metabolized”.

With `CC(C)c1c(CN(C)C(C)Cc2ccccc2)n(C)n(-c2ccccc2)c1=O` (centres undefined) [FAMPROFAZONE], the “Bacterial Biotransformation” value was “Compound metabolized”.

On to `COc1ccc2cc([C@H](C)C(=O)O)ccc2c1` [NAPROXEN], for which the “Bacterial Biotransformation” value is “Compound NOT metabolized”.

Another series can be described thus: The drug is tested on Enterococcus faecalis strain: V583 for biotransformation. The drug concentrations were measured before and after a 12-h incubation by liquid-chromatography-coupled mass spectrometry (LC–MS). The conditions noted are these: 2 µM.
With `CN1CCN2c3ccccc3Cc3ccccc3C2C1` (centres undefined) [MIANSERIN], the “Bacterial Biotransformation” value is on record as “Compound NOT metabolized”.

Consider `CN(C)CCC=C1c2ccccc2COc2ccccc21` [DOXEPIN], for which the “Bacterial Biotransformation” value is listed as “Compound NOT metabolized”.

With `CC(C)c1c(CN(C)C(C)Cc2ccccc2)n(C)n(-c2ccccc2)c1=O` (centres undefined) [FAMPROFAZONE], the “Bacterial Biotransformation” value is “Compound NOT metabolized”.

Regarding `COc1ccc2cc([C@H](C)C(=O)O)ccc2c1` [NAPROXEN], the “Bacterial Biotransformation” value was “Compound NOT metabolized”.

The conditions of a further series: anaerostipes sp., 12 h, 2 µM.
Description: The drug is tested on Anaerostipes sp. strain: fecal isolate for biotransformation. The drug concentrations were measured before and after a 12-h incubation by liquid-chromatography-coupled mass spectrometry (LC–MS)
Consider `CN1CCN2c3ccccc3Cc3ccccc3C2C1` (centres undefined) [MIANSERIN], for which the “Bacterial Biotransformation” value is given as “Compound NOT metabolized”.

Consider `CN(C)CCC=C1c2ccccc2COc2ccccc21` [DOXEPIN], for which the “Bacterial Biotransformation” value is recorded as “Compound NOT metabolized”.

Consider `CC(C)c1c(CN(C)C(C)Cc2ccccc2)n(C)n(-c2ccccc2)c1=O` (centres undefined) [FAMPROFAZONE], for which the “Bacterial Biotransformation” value is “Compound metabolized”.

With `COc1ccc2cc([C@H](C)C(=O)O)ccc2c1` [NAPROXEN], the “Bacterial Biotransformation” value is “Compound NOT metabolized”.

The next series in a line: The drug is tested on Clostridium sporogenes strain: ATCC15579 for biotransformation. The drug concentrations were measured before and after a 12-h incubation by liquid-chromatography-coupled mass spectrometry (LC–MS). The conditions noted are these: 2 µM.
Turning to `CN1CCN2c3ccccc3Cc3ccccc3C2C1` (centres undefined) [MIANSERIN], the “Bacterial Biotransformation” value is “Compound NOT metabolized”.

With `CN(C)CCC=C1c2ccccc2COc2ccccc21` [DOXEPIN], the “Bacterial Biotransformation” value is listed as “Compound NOT metabolized”.

`CC(C)c1c(CN(C)C(C)Cc2ccccc2)n(C)n(-c2ccccc2)c1=O` (centres undefined) [FAMPROFAZONE]: the “Bacterial Biotransformation” value is recorded as “Compound NOT metabolized”.

The conditions of the next series: parabacteroides johnsonii, 12 h, 2 µM.
Description: The drug is tested on Parabacteroides johnsonii strain: DSM18315 for biotransformation. The drug concentrations were measured before and after a 12-h incubation by liquid-chromatography-coupled mass spectrometry (LC–MS)
For `CN(C)CCC=C1c2ccccc2COc2ccccc21` [DOXEPIN], the “Bacterial Biotransformation” value is given as “Compound NOT metabolized”.

As for `CC(C)c1c(CN(C)C(C)Cc2ccccc2)n(C)n(-c2ccccc2)c1=O` (centres undefined) [FAMPROFAZONE], the “Bacterial Biotransformation” value was “Compound metabolized”.

The nature of a further series: The drug is tested on Bacteroides cellulosilyticus strain: DSM14838 for biotransformation. The drug concentrations were measured before and after a 12-h incubation by liquid-chromatography-coupled mass spectrometry (LC–MS). The conditions noted are these: 2 µM.
Consider `CN1CCN2c3ccccc3Cc3ccccc3C2C1` (centres undefined) [MIANSERIN], for which the “Bacterial Biotransformation” value is reported as “Compound NOT metabolized”.

As to `CN(C)CCC=C1c2ccccc2COc2ccccc21` [DOXEPIN], the “Bacterial Biotransformation” value was “Compound NOT metabolized”.

As to `CC(C)c1c(CN(C)C(C)Cc2ccccc2)n(C)n(-c2ccccc2)c1=O` (centres undefined) [FAMPROFAZONE], the “Bacterial Biotransformation” value is on record as “Compound metabolized”.

As for `COc1ccc2cc([C@H](C)C(=O)O)ccc2c1` [NAPROXEN], the “Bacterial Biotransformation” value is “Compound NOT metabolized”.

The next series can be described thus: The drug is tested on Clostridium scindens strain: ATCC35704 for biotransformation. The drug concentrations were measured before and after a 12-h incubation by liquid-chromatography-coupled mass spectrometry (LC–MS). To be noted: 2 µM.
Regarding `CN1CCN2c3ccccc3Cc3ccccc3C2C1` (centres undefined) [MIANSERIN], the “Bacterial Biotransformation” value is given as “Compound NOT metabolized”.

As to `CN(C)CCC=C1c2ccccc2COc2ccccc21` [DOXEPIN], the “Bacterial Biotransformation” value was “Compound NOT metabolized”.

In the case of `CC(C)c1c(CN(C)C(C)Cc2ccccc2)n(C)n(-c2ccccc2)c1=O` (centres undefined) [FAMPROFAZONE], the “Bacterial Biotransformation” value was “Compound NOT metabolized”.

As to `COc1ccc2cc([C@H](C)C(=O)O)ccc2c1` [NAPROXEN], the “Bacterial Biotransformation” value is “Compound NOT metabolized”.

For the next series the following is noted: bacteroides fragilis, 12 h, 2 µM.
Description: The drug is tested on Bacteroides fragilis strain: 3397 (T10) for biotransformation. The drug concentrations were measured before and after a 12-h incubation by liquid-chromatography-coupled mass spectrometry (LC–MS)
As to `CN1CCN2c3ccccc3Cc3ccccc3C2C1` (centres undefined) [MIANSERIN], the “Bacterial Biotransformation” value is “Compound NOT metabolized”.

With `CN(C)CCC=C1c2ccccc2COc2ccccc21` [DOXEPIN], the “Bacterial Biotransformation” value was “Compound NOT metabolized”.

`CC(C)c1c(CN(C)C(C)Cc2ccccc2)n(C)n(-c2ccccc2)c1=O` (centres undefined) [FAMPROFAZONE]: the “Bacterial Biotransformation” value is reported as “Compound metabolized”.

As for `COc1ccc2cc([C@H](C)C(=O)O)ccc2c1` [NAPROXEN], the “Bacterial Biotransformation” value is recorded as “Compound NOT metabolized”.

The nature of a further series: The drug is tested on Bifidobacterium breve strain: DSM20213 for biotransformation. The drug concentrations were measured before and after a 12-h incubation by liquid-chromatography-coupled mass spectrometry (LC–MS). The conditions noted are these: 2 µM.
As for `CN1CCN2c3ccccc3Cc3ccccc3C2C1` (centres undefined) [MIANSERIN], the “Bacterial Biotransformation” value is on record as “Compound NOT metabolized”.

On to `CN(C)CCC=C1c2ccccc2COc2ccccc21` [DOXEPIN], for which the “Bacterial Biotransformation” value is reported as “Compound NOT metabolized”.

Regarding `CC(C)c1c(CN(C)C(C)Cc2ccccc2)n(C)n(-c2ccccc2)c1=O` (centres undefined) [FAMPROFAZONE], the “Bacterial Biotransformation” value is reported as “Compound NOT metabolized”.

As to `COc1ccc2cc([C@H](C)C(=O)O)ccc2c1` [NAPROXEN], the “Bacterial Biotransformation” value is given as “Compound NOT metabolized”.

The nature of a further series: The drug is tested on Providencia rettgeri strain: DSM1131 for biotransformation. The drug concentrations were measured before and after a 12-h incubation by liquid-chromatography-coupled mass spectrometry (LC–MS). Type of series: ADME. Set-up: dose 2 uM, timepoint 0 vs 12 hours. The conditions noted are these: 2 µM.
For the compound `CC(C)c1c(CN(C)C(C)Cc2ccccc2)n(C)n(-c2ccccc2)c1=O` (centres undefined) [FAMPROFAZONE], the “Bacterial Biotransformation” value was “Compound NOT metabolized”.

As to `COc1ccc2cc([C@H](C)C(=O)O)ccc2c1` [NAPROXEN], the “Bacterial Biotransformation” value is given as “Compound NOT metabolized”.

For the next series the following is noted: parabacteroides distasonis, 12 h, 2 µM.
Description: The drug is tested on Parabacteroides distasonis strain: ATCC8503 for biotransformation. The drug concentrations were measured before and after a 12-h incubation by liquid-chromatography-coupled mass spectrometry (LC–MS)
On to `CC(C)c1c(CN(C)C(C)Cc2ccccc2)n(C)n(-c2ccccc2)c1=O` (centres undefined) [FAMPROFAZONE], for which the “Bacterial Biotransformation” value is reported as “Compound metabolized”.

As for `COc1ccc2cc([C@H](C)C(=O)O)ccc2c1` [NAPROXEN], the “Bacterial Biotransformation” value was “Compound NOT metabolized”.

A short description of a further series: The drug is tested on Bacteroides caccae strain: ATCC43185 for biotransformation. The drug concentrations were measured before and after a 12-h incubation by liquid-chromatography-coupled mass spectrometry (LC–MS). The conditions noted are these: 2 µM.
Take `CN1CCN2c3ccccc3Cc3ccccc3C2C1` (centres undefined) [MIANSERIN]: the “Bacterial Biotransformation” value is given as “Compound NOT metabolized”.

As for `CN(C)CCC=C1c2ccccc2COc2ccccc21` [DOXEPIN], the “Bacterial Biotransformation” value is reported as “Compound NOT metabolized”.

Take `CC(C)c1c(CN(C)C(C)Cc2ccccc2)n(C)n(-c2ccccc2)c1=O` (centres undefined) [FAMPROFAZONE]: the “Bacterial Biotransformation” value is on record as “Compound NOT metabolized”.

In the case of `COc1ccc2cc([C@H](C)C(=O)O)ccc2c1` [NAPROXEN], the “Bacterial Biotransformation” value is on record as “Compound NOT metabolized”.

For another series the following is noted: segatella copri, 12 h, 2 µM.
Description: The drug is tested on Prevotella copri strain: DSM18205 for biotransformation. The drug concentrations were measured before and after a 12-h incubation by liquid-chromatography-coupled mass spectrometry (LC–MS)
As for `CN(C)CCC=C1c2ccccc2COc2ccccc21` [DOXEPIN], the “Bacterial Biotransformation” value is “Compound NOT metabolized”.

For the compound `CC(C)c1c(CN(C)C(C)Cc2ccccc2)n(C)n(-c2ccccc2)c1=O` (centres undefined) [FAMPROFAZONE], the “Bacterial Biotransformation” value is listed as “Compound metabolized”.

The next series can be described thus: The drug is tested on Ruminococcus lactaris strain: ATCC29176 for biotransformation. The drug concentrations were measured before and after a 12-h incubation by liquid-chromatography-coupled mass spectrometry (LC–MS). To be noted: 2 µM.
In the case of `CN1CCN2c3ccccc3Cc3ccccc3C2C1` (centres undefined) [MIANSERIN], the “Bacterial Biotransformation” value is given as “Compound NOT metabolized”.

Take `CN(C)CCC=C1c2ccccc2COc2ccccc21` [DOXEPIN]: the “Bacterial Biotransformation” value is recorded as “Compound NOT metabolized”.

For `CC(C)c1c(CN(C)C(C)Cc2ccccc2)n(C)n(-c2ccccc2)c1=O` (centres undefined) [FAMPROFAZONE], the “Bacterial Biotransformation” value is on record as “Compound NOT metabolized”.

Regarding `COc1ccc2cc([C@H](C)C(=O)O)ccc2c1` [NAPROXEN], the “Bacterial Biotransformation” value was “Compound NOT metabolized”.

The next series can be described thus: The drug is tested on Odoribacter splanchnicus strain: fecal isolate for biotransformation. The drug concentrations were measured before and after a 12-h incubation by liquid-chromatography-coupled mass spectrometry (LC–MS). The conditions noted are these: 2 µM.
As to `CN1CCN2c3ccccc3Cc3ccccc3C2C1` (centres undefined) [MIANSERIN], the “Bacterial Biotransformation” value is reported as “Compound NOT metabolized”.

For `CN(C)CCC=C1c2ccccc2COc2ccccc21` [DOXEPIN], the “Bacterial Biotransformation” value is recorded as “Compound NOT metabolized”.

On to `CC(C)c1c(CN(C)C(C)Cc2ccccc2)n(C)n(-c2ccccc2)c1=O` (centres undefined) [FAMPROFAZONE], for which the “Bacterial Biotransformation” value is reported as “Compound metabolized”.

Regarding `COc1ccc2cc([C@H](C)C(=O)O)ccc2c1` [NAPROXEN], the “Bacterial Biotransformation” value is “Compound NOT metabolized”.

For the next series the following is noted: bacteroides thetaiotaomicron, 12 h, 2 µM.
Description: The drug is tested on Bacteroides thetaiotaomicron strain: VPI-5482 for biotransformation. The drug concentrations were measured before and after a 12-h incubation by liquid-chromatography-coupled mass spectrometry (LC–MS)
`CN(C)CCC=C1c2ccccc2COc2ccccc21` [DOXEPIN]: the “Bacterial Biotransformation” value was “Compound NOT metabolized”.

For `CC(C)c1c(CN(C)C(C)Cc2ccccc2)n(C)n(-c2ccccc2)c1=O` (centres undefined) [FAMPROFAZONE], the “Bacterial Biotransformation” value is given as “Compound metabolized”.

For the compound `COc1ccc2cc([C@H](C)C(=O)O)ccc2c1` [NAPROXEN], the “Bacterial Biotransformation” value was “Compound NOT metabolized”.

For another series the following is noted: bifidobacterium adolescentis, 12 h, 2 µM.
Description: The drug is tested on Bifidobacterium adolescentis strain: ATCC 15703 for biotransformation. The drug concentrations were measured before and after a 12-h incubation by liquid-chromatography-coupled mass spectrometry (LC–MS)
As for `CN1CCN2c3ccccc3Cc3ccccc3C2C1` (centres undefined) [MIANSERIN], the “Bacterial Biotransformation” value is “Compound NOT metabolized”.

Take `CN(C)CCC=C1c2ccccc2COc2ccccc21` [DOXEPIN]: the “Bacterial Biotransformation” value was “Compound NOT metabolized”.

As for `CC(C)c1c(CN(C)C(C)Cc2ccccc2)n(C)n(-c2ccccc2)c1=O` (centres undefined) [FAMPROFAZONE], the “Bacterial Biotransformation” value is listed as “Compound NOT metabolized”.

These data come from ChEMBL document CHEMBL5303573, “Mapping human microbiome drug metabolism by gut bacteria and their genes” (Nature, 2019).
